# From ChEMBL document CHEMBL5291721, “A preclinical secondary pharmacology resource illuminates target-adverse drug reaction associations of marketed drugs” (Nat Commun, 2023)
# Experiments:
# [1] = biological target: Gamma-aminobutyric acid receptor subunit alpha-1/alpha-2/beta-2/gamma-2 (Homo sapiens, UniProt P14867+P18507+P47869+P47870); assay type: functional, cell-based
# D(1A) dopamine receptor = D(1A) dopamine receptor (Homo sapiens, UniProt P21728)
# [2] = biological target: T1, Peroxisome proliferator-activated receptor gamma (Homo sapiens, UniProt P37231); assay type: functional
# T1 sequence (P37231 whole entry): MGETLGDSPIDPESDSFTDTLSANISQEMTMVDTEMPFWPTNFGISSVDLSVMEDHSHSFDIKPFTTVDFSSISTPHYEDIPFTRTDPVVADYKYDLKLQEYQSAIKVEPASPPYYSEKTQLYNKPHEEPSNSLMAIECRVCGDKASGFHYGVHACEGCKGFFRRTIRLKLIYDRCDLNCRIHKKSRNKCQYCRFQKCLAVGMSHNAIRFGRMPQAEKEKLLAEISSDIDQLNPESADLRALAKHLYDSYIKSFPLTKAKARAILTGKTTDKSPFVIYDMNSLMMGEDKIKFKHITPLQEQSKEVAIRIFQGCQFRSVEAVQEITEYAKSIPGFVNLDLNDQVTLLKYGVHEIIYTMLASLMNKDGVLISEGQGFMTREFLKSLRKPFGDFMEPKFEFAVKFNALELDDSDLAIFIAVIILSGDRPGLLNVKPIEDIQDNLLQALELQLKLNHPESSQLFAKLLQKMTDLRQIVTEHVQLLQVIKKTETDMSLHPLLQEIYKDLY
# Androgen receptor = biological target: T2, Androgen receptor (Rattus norvegicus, UniProt P15207); assay type: functional
# T2 sequence (P15207 whole entry): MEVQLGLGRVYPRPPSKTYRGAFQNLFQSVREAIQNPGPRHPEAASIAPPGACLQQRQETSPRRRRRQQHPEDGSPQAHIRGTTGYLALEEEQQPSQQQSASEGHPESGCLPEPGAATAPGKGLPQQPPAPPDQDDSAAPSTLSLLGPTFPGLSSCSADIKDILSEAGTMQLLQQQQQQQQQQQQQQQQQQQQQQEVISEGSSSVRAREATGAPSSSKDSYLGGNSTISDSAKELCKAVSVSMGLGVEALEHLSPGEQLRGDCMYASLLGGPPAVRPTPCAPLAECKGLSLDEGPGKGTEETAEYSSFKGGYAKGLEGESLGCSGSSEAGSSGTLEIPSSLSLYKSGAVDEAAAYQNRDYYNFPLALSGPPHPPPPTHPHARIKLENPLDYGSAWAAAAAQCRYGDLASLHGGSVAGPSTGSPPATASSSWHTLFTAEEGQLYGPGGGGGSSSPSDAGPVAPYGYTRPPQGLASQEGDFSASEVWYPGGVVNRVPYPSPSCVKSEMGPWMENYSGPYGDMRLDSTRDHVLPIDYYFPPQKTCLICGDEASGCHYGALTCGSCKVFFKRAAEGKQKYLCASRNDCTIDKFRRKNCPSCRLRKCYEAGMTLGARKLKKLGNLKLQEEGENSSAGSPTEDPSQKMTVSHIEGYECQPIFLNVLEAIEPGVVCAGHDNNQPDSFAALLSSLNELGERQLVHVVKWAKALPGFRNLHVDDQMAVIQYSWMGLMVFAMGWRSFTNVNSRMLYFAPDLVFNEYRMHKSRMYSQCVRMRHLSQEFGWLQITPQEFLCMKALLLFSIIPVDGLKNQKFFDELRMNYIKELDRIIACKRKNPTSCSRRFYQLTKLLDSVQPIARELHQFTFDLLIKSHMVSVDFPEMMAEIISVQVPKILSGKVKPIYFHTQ
# [3] = biological target: Voltage-dependent N-type calcium channel subunit alpha-1B (Rattus norvegicus, UniProt Q02294); assay type: functional
# [4] = biological target: T3, Muscarinic acetylcholine receptor M2 (Homo sapiens, UniProt P08172)
# T3 sequence (P08172 whole entry): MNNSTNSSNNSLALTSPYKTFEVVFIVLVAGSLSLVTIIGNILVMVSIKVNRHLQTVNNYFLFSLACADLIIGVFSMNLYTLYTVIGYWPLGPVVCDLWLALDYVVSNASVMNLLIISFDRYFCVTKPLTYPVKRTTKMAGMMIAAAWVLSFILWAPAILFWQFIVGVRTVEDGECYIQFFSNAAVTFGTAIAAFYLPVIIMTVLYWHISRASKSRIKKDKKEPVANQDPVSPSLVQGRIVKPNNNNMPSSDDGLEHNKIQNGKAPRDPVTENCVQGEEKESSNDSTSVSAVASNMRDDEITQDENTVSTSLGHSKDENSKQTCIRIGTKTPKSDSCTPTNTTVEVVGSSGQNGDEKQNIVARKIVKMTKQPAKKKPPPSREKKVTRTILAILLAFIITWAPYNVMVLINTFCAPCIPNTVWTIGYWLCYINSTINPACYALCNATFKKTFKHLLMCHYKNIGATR
# Glucagon receptor = Glucagon receptor (Homo sapiens, UniProt P47871)
# [5] = biological target: T4, Corticotropin-releasing factor receptor 1 (Homo sapiens, UniProt P34998)
# T4 sequence (P34998 whole entry): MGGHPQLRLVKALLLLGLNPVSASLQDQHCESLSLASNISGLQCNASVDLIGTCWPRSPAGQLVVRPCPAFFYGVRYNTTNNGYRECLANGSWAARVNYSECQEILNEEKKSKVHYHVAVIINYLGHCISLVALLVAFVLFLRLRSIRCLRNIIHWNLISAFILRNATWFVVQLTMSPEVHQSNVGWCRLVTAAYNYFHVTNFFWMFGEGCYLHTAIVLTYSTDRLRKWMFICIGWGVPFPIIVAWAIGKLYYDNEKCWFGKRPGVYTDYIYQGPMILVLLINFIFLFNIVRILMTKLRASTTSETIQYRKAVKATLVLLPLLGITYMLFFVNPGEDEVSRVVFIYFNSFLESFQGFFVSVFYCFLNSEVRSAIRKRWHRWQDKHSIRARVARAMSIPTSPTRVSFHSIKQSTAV
# [6] = biological target: T5, Neuropeptide Y receptor type 2 (Homo sapiens, UniProt P49146)
# T5 sequence (P49146 whole entry): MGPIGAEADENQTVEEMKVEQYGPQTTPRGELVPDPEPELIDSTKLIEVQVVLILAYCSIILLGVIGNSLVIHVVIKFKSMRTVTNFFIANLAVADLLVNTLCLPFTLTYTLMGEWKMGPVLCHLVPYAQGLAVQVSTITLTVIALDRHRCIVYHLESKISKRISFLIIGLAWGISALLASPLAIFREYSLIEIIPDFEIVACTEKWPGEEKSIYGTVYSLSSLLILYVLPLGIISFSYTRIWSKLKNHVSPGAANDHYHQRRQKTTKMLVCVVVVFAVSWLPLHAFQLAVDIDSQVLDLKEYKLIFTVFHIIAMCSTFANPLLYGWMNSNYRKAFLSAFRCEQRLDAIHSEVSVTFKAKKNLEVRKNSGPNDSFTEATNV
# Also: assay procedure not described here.
# Sequence of Voltage-dependent N-type calcium channel subunit alpha-1B (Q02294 whole entry): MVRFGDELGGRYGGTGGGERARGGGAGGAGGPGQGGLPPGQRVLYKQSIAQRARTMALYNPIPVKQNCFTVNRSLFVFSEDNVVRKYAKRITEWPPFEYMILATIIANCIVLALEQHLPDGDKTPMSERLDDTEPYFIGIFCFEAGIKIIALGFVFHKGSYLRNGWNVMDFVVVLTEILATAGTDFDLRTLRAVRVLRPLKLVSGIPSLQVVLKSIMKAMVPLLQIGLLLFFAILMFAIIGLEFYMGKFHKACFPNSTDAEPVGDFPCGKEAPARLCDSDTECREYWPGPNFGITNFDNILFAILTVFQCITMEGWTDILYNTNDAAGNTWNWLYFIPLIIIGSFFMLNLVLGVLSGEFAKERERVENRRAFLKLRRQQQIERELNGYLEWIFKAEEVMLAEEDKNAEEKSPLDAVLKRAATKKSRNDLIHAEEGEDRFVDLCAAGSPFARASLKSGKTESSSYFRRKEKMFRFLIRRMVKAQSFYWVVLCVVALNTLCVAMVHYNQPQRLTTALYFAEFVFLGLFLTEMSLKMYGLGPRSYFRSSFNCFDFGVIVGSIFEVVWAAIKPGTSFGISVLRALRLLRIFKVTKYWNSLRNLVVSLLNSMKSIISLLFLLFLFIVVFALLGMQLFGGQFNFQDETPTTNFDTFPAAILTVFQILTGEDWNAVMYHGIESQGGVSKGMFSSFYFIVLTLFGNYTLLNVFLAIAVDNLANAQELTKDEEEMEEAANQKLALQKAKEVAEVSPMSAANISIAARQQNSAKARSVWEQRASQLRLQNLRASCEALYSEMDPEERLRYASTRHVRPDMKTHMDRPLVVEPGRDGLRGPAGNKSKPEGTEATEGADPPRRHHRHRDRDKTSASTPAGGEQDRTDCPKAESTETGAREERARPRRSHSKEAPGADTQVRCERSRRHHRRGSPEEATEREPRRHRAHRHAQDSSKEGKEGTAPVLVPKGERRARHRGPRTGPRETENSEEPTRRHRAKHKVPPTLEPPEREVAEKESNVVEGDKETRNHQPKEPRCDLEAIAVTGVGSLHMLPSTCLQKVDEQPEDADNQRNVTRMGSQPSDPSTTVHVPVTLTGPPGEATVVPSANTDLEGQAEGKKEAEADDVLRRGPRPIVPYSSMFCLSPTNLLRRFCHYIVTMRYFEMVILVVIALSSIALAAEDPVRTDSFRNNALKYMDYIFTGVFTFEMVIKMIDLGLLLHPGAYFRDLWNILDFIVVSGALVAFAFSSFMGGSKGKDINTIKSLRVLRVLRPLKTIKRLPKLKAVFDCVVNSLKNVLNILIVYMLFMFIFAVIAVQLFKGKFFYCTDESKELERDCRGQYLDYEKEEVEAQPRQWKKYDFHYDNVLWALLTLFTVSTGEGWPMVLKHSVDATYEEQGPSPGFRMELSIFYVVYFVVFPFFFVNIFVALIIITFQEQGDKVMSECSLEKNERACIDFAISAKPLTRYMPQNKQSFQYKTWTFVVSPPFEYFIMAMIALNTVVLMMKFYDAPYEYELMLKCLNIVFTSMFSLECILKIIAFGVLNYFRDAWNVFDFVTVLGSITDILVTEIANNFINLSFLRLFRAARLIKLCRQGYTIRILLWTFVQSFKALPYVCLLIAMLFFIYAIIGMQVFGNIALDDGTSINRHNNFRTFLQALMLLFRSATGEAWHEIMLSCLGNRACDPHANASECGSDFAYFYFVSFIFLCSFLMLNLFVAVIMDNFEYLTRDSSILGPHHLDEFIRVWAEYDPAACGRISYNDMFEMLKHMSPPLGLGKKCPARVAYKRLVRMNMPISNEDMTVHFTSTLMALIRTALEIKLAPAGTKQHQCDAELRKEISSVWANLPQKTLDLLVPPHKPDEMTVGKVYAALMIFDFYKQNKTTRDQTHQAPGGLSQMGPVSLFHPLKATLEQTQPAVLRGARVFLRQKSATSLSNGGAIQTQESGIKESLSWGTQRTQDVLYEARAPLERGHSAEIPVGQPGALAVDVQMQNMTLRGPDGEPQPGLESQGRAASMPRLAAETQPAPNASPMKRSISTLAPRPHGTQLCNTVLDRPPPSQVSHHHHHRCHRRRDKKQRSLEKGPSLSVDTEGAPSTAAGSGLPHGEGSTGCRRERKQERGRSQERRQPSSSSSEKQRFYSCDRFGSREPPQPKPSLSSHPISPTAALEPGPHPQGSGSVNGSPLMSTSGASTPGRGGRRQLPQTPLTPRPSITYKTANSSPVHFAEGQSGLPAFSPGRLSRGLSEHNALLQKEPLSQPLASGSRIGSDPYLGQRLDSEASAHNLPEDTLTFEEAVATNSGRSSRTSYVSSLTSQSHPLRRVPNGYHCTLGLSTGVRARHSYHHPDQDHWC
# Sequence of Glucagon receptor (P47871 whole entry): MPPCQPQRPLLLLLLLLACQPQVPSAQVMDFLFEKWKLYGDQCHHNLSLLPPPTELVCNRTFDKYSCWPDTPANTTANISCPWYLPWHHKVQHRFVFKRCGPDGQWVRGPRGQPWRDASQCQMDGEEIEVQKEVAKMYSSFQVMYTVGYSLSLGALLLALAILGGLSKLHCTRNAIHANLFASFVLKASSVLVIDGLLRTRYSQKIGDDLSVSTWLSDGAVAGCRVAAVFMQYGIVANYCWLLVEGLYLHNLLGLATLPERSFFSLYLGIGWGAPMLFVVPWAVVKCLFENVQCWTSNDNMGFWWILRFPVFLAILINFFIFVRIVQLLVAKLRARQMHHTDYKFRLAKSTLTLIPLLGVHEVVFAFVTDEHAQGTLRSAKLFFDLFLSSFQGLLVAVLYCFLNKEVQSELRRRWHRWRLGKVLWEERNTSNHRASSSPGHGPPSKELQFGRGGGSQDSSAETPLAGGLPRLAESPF
# Sequence of Gamma-aminobutyric acid receptor subunit alpha-1/alpha-2/beta-2/gamma-2 (P14867 whole entry): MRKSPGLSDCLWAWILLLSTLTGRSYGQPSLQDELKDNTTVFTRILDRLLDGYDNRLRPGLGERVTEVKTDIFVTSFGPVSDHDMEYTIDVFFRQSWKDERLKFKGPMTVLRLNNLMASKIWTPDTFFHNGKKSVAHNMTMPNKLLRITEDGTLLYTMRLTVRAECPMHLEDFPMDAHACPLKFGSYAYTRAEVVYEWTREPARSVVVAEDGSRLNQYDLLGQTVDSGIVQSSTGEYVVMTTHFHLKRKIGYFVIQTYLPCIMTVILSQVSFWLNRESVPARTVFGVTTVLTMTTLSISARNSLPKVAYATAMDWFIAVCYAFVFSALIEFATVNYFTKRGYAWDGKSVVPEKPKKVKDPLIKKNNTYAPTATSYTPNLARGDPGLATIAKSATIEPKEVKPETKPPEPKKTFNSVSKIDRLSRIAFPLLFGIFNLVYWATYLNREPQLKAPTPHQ
# Sequence of Gamma-aminobutyric acid receptor subunit alpha-1/alpha-2/beta-2/gamma-2 (P47870 whole entry): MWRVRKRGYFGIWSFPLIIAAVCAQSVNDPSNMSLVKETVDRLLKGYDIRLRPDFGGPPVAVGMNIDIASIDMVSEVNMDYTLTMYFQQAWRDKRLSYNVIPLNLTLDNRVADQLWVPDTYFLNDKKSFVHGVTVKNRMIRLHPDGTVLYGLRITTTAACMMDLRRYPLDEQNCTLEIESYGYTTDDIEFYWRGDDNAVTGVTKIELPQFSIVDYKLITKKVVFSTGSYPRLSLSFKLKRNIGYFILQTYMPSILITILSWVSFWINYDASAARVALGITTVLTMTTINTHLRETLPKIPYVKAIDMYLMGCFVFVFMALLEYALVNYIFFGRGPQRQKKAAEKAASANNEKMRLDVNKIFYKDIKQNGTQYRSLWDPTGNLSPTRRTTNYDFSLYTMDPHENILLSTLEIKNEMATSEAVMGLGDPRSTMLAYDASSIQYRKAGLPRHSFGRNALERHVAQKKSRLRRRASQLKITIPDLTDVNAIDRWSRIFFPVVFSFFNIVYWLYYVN
# Sequence of Gamma-aminobutyric acid receptor subunit alpha-1/alpha-2/beta-2/gamma-2 (P18507 whole entry): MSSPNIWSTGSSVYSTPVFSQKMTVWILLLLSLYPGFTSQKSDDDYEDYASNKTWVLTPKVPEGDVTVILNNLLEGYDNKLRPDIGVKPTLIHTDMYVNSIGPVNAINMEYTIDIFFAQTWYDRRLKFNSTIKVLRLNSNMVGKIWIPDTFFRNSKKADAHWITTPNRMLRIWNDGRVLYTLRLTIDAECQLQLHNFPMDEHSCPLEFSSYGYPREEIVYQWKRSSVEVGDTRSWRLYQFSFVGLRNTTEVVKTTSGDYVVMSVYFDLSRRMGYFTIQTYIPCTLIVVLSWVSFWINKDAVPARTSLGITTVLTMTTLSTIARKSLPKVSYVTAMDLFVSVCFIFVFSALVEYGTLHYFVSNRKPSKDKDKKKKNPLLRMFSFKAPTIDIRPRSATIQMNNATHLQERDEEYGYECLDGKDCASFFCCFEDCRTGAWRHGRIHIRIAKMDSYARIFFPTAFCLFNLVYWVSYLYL
# Sequence of Gamma-aminobutyric acid receptor subunit alpha-1/alpha-2/beta-2/gamma-2 (P47869 whole entry): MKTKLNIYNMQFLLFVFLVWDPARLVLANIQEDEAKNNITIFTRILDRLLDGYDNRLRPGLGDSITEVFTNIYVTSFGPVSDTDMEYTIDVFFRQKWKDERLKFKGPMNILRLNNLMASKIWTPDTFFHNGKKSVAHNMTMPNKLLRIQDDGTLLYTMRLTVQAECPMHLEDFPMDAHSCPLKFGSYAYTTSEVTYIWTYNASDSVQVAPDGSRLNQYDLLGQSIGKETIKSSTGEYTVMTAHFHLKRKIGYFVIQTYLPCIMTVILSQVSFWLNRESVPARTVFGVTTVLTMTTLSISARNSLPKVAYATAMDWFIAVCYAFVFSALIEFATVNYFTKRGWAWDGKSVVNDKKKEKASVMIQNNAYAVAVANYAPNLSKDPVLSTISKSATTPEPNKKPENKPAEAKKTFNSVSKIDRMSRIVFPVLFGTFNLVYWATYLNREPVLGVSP
smiles,measurement,setting,value
C#CCN(C)Cc1ccccc1 [PARGYLINE],AC50,[1],> 30 µM
same,AC50,D(1A) dopamine receptor,> 30 µM
CC(C)(CO)c1cc2cc(NC(=O)C3(c4ccc5c(c4)OC(F)(F)O5)CC3)c(F)cc2n1C[C@@H](O)CO [TEZACAFTOR],AC50,[2],> 30 µM
same,AC50,[1],> 30 µM
same,AC50,Androgen receptor,> 30 µM
CCN(CC)CCn1c(=O)c(Cc2ccc(OC)cc2)nc2ccccc21 [CAROVERINE],AC50,Androgen receptor,> 30 µM
CCCCCCO[C@@H](C)c1cccc(-c2csc(NC(=O)c3cc(Cl)c(/C=C(\C)C(=O)O)c(Cl)c3)n2)c1OC [LUSUTROMBOPAG],AC50,D(1A) dopamine receptor,5.53 µM
CC(=O)SCC(Cc1ccccc1)C(=O)NCC(=O)OCc1ccccc1 (stereo not drawn) [RACECADOTRIL],AC50,[3],> 10 µM
same,AC50,[4],> 10 µM
OCCOCCN1CCN(C(c2ccccc2)c2ccc(Cl)cc2)CC1 (stereo not drawn) [HYDROXYZINE],AC50,Glucagon receptor,> 30 µM
same,AC50,[3],> 10 µM
same,AC50,[4],9.04 µM
same,AC50,[5],> 30 µM
same,AC50,[6],> 30 µM
CN1CC2c3ccccc3Oc3ccc(Cl)cc3C2C1 (stereo not drawn) [ASENAPINE],AC50,[2],> 30 µM
same,AC50,[1],> 30 µM
CS(=O)(=O)Nc1ccc([N+](=O)[O-])cc1Oc1ccccc1 [NIMESULIDE],AC50,[1],> 30 µM
COc1cc2c(cc1OC)C1CC(=O)C(CC(C)C)CN1CC2 (stereo not drawn) [TETRABENAZINE],AC50,[2],> 30 µM
same,AC50,[1],> 30 µM
CCOC(=O)[C@H](CCc1ccccc1)N[C@@H](C)C(=O)N1Cc2ccccc2C[C@H]1C(=O)O,AC50,Glucagon receptor,> 30 µM
same,AC50,[3],> 10 µM
same,AC50,[4],> 10 µM
same,AC50,[5],> 30 µM
same,AC50,[6],> 30 µM
O=C(O)[C@H]1/C(=C/CO)O[C@@H]2CC(=O)N21 [CLAVULANIC ACID],AC50,[2],> 30 µM
same,AC50,[1],> 30 µM
Cc1c(C)c2c(c(C)c1O)CCC(C)(COc1ccc(CC3SC(=O)NC3=O)cc1)O2 (stereo not drawn) [TROGLITAZONE],AC50,Glucagon receptor,> 30 µM
same,AC50,[1],> 30 µM
same,AC50,Androgen receptor,> 30 µM
same,AC50,[5],> 30 µM
same,AC50,[6],> 30 µM
C[C@H](CCC(=O)O)[C@H]1CC[C@H]2[C@@H]3[C@H](O)C[C@@H]4C[C@H](O)CC[C@]4(C)[C@H]3CC[C@]12C [CHENODIOL],AC50,[2],> 30 µM
same,AC50,[1],> 30 µM
N[C@@H](Cc1cc(I)c(Oc2cc(I)c(O)c(I)c2)c(I)c1)C(=O)O [LEVOTHYROXINE],AC50,[2],> 30 µM
same,AC50,[1],> 30 µM
CN(C)CCOC(c1ccc(Cl)cc1)c1ccccn1 (stereo not drawn) [CARBINOXAMINE],AC50,[2],> 30 µM
same,AC50,[1],> 30 µM
c1cnc2cc3c(cc2n1)[C@@H]1CNC[C@H]3C1 [VARENICLINE],AC50,[2],> 30 µM
same,AC50,[1],> 30 µM
CC(=O)Oc1ccccc1C(=O)O [ASPIRIN],AC50,Glucagon receptor,> 30 µM
same,AC50,[3],> 10 µM
same,AC50,[5],> 30 µM
same,AC50,[6],> 30 µM
C[C@H](Nc1ncnc2[nH]cnc12)c1cc2cccc(Cl)c2c(=O)n1-c1ccccc1 [DUVELISIB],AC50,[2],> 30 µM
same,AC50,[1],> 30 µM
same,AC50,Androgen receptor,> 30 µM
same,AC50,D(1A) dopamine receptor,> 30 µM
CN(C)CCCC1(c2ccc(F)cc2)OCc2cc(C#N)ccc21 (stereo not drawn) [CITALOPRAM],AC50,Glucagon receptor,> 30 µM
same,AC50,[3],> 10 µM
same,AC50,[5],> 30 µM
same,AC50,[6],> 30 µM
CCCCCCCC/C=C\CCCCCCCC(=O)O [OLEIC ACID],AC50,[2],> 300 µM
Nc1c2c(nc3ccccc13)CCCC2O (stereo not drawn) [VELNACRINE],AC50,[2],> 30 µM
same,AC50,[1],> 30 µM
CN(C)CCC=C1c2ccccc2CCc2ccccc21 [AMITRIPTYLINE],AC50,Glucagon receptor,> 30 µM
same,AC50,[3],> 10 µM
same,AC50,[5],> 30 µM
same,AC50,[6],> 30 µM
CCC[C@@]1(CCc2ccccc2)CC(O)=C([C@H](CC)c2cccc(NS(=O)(=O)c3ccc(C(F)(F)F)cn3)c2)C(=O)O1,AC50,[2],> 30 µM
same,AC50,[1],> 30 µM
Nc1nnc(-c2cccc(Cl)c2Cl)c(N)n1 [LAMOTRIGINE],AC50,Glucagon receptor,> 30 µM
same,AC50,[3],> 10 µM
same,AC50,[4],> 10 µM
same,AC50,[5],> 30 µM
same,AC50,[6],> 30 µM
CO[C@@H]1[C@@H](OC(N)=O)[C@@H](O)[C@H](Oc2ccc3c(O)c(NC(=O)c4ccc(O)c(CC=C(C)C)c4)c(=O)oc3c2C)OC1(C)C [NOVOBIOCIN],AC50,[2],> 30 µM
same,AC50,[1],> 30 µM
CCOCC(O)COc1ccc(NC(=O)CC[S+](C)C)cc1 (stereo not drawn),AC50,[2],> 30 µM
same,AC50,[1],> 30 µM
CC#CC(=O)N1CCC[C@H]1c1nc(-c2ccc(C(=O)Nc3ccccn3)cc2)c2c(N)nccn12 [ACALABRUTINIB],AC50,D(1A) dopamine receptor,> 30 µM
C[C@@H](O)[C@H]1C(=O)N2C(C(=O)O)=C(SCCN=CN)C[C@H]12 [IMIPENEM ANHYDROUS],AC50,[2],> 300 µM
same,AC50,[1],> 2000 µM
O=C(Cc1cccs1)N[C@@H]1C(=O)N2C(C(=O)[O-])=C(C[n+]3ccccc3)CS[C@H]12 [CEPHALORIDINE],AC50,[1],> 30 µM
same,AC50,D(1A) dopamine receptor,> 30 µM
NCC1(CC(=O)O)CCCCC1 [GABAPENTIN],AC50,Glucagon receptor,> 30 µM
same,AC50,[2],> 30 µM
same,AC50,[1],> 30 µM
same,AC50,[4],> 10 µM
same,AC50,[5],> 30 µM
same,AC50,[6],> 30 µM
CN(C)CCc1c[nH]c2ccc(CS(=O)(=O)N3CCCC3)cc12 [ALMOTRIPTAN],AC50,[1],> 30 µM
C[C@]12CCC(=O)C=C1CC[C@H]1[C@@H]3CC[C@](O)(C(=O)CO)[C@@]3(C)C[C@H](O)[C@@]12F [FLUDROCORTISONE],AC50,Glucagon receptor,> 30 µM
same,AC50,[3],> 10 µM
same,AC50,[4],> 10 µM
same,AC50,[5],> 30 µM
same,AC50,[6],> 30 µM
O=C(O)[C@@H](S)[C@@H](S)C(=O)O,AC50,D(1A) dopamine receptor,> 30 µM
O=C1[C@@H]2[C@H]3CC[C@H](C3)[C@@H]2C(=O)N1C[C@@H]1CCCC[C@H]1CN1CCN(c2nsc3ccccc23)CC1 [LURASIDONE],AC50,[2],> 30 µM
same,AC50,[1],> 30 µM
same,AC50,Androgen receptor,5.7 µM
Cn1cnc2c(F)c(Nc3ccc(Br)cc3F)c(C(=O)NOCCO)cc21 [BINIMETINIB],AC50,[2],> 30 µM
same,AC50,[1],> 30 µM
same,AC50,Androgen receptor,> 30 µM
